≈ marks a conversion by molar mass, not a printed value.
Assays:
Homo sapiens [1] = species on record: Homo sapiens; assay: Selectivity ratio of IC50 for recombinant human N-terminal His6-tagged EGFR (696 to end residues) to IC50 for human full length N-terminal His6-tagged BMX
[2] = target: Proto-oncogene tyrosine-protein kinase Src (Homo sapiens, UniProt P12931); assay: Inhibition of recombinant human full length N-terminal His6-tagged SRC expressed in Sf21 insect cells preincubated for 5 mins followed by substrate addition after 30 to 60 mins in presence of ATP by fluorescence assay
[3] = target: Receptor-interacting serine/threonine-protein kinase 2 (Homo sapiens, UniProt O43353); assay: Inhibition of recombinant human N-terminal His6-tagged RIPK2 (1 to 299 residues) expressed in baculovirus Sf21 insect cells preincubated for 5 mins followed by substrate addition after 30 to 60 mins in presence of ATP by fluorescence assay
Homo sapiens [4] = species on record: Homo sapiens; assay: Selectivity ratio of IC50 for recombinant human N-terminal His6-tagged FMS (538 to end residues) to IC50 for human full length N-terminal His6-tagged BMX
NCI-H1975 = assay: Antitumor activity against human NCI-H1975 cells xenografted in nude mouse assessed as tumor growth inhibition at 25 mg/kg administered via oral gavage qd measured every 2 days up to 18 days relative to control; assay type: functional; conditions: read-out: TGI
Homo sapiens [5] = species on record: Homo sapiens; assay: Selectivity ratio of IC50 for recombinant human N-terminal GST-tagged RET (658 to end residues) to IC50 for human full length N-terminal His6-tagged BMX
Homo sapiens [6] = species on record: Homo sapiens; assay: Selectivity ratio of IC50 for recombinant human full length N-terminal His6-tagged FYN to IC50 for human full length N-terminal His6-tagged BMX
Homo sapiens [7] = species on record: Homo sapiens; assay: Selectivity ratio of IC50 for recombinant human N-terminal His6-tagged TXK (256 to end residues) to IC50 for human full length N-terminal His6-tagged BMX
[8] = target: Tyrosine-protein kinase ABL1 (Homo sapiens, UniProt P00519); assay: Inhibition of recombinant human N-terminal His6-tagged ABL (27 to end residues) expressed in baculovirus Sf21 insect cells preincubated for 5 mins followed by substrate addition after 30 to 60 mins in presence of ATP by fluorescence assay
Homo sapiens [9] = species on record: Homo sapiens; assay: Selectivity ratio of IC50 for recombinant human full length N-terminal His6-tagged LYN to IC50 for human full length N-terminal His6-tagged BMX
[10] = target: Tyrosine-protein kinase HCK (Homo sapiens, UniProt P08631); assay: Inhibition of recombinant human N-terminal His6-tagged HCK (230 to 497 residues) expressed in baculovirus Sf21 insect cells preincubated for 5 mins followed by substrate addition after 30 to 60 mins in presence of ATP by fluorescence assay
A549 = assay: Antiproliferative activity against human A549 cells harboring wild type EGFR after 72 hrs by MTT assay; assay type: functional, cell-based; conditions: A549, 72 h
[11] = target: Tyrosine-protein kinase FRK (Homo sapiens, UniProt P42685); assay: Inhibition of recombinant human N-terminal His6-tagged FRK (218 to end residues) expressed in baculovirus Sf21 insect cells preincubated for 5 mins followed by substrate addition after 30 to 60 mins in presence of ATP by fluorescence assay
[12] = target: Macrophage colony-stimulating factor 1 receptor (Homo sapiens, UniProt P07333); assay: Inhibition of recombinant human N-terminal His6-tagged FMS (538 to end residues) expressed in baculovirus Sf21 insect cells preincubated for 5 mins followed by substrate addition after 30 to 60 mins in presence of ATP by fluorescence assay
Mus musculus [13] = assay: Toxicity in nude mouse xenografted with human NCI-H1975 cells assessed as adverse effects at 25 mg/kg administered qd via oral gavage for 18 days measured on day 14; assay type: organism-based; conditions: in vivo, 432 h
[14] = target: Platelet-derived growth factor receptor alpha (Homo sapiens, UniProt P16234); assay: Inhibition of human PDGFRalpha expressed in baculovirus Sf21 insect cells preincubated for 5 mins followed by substrate addition after 30 to 60 mins in presence of ATP by fluorescence assay
Homo sapiens [15] = species on record: Homo sapiens; assay: Selectivity ratio of IC50 for recombinant human N-terminal His6-tagged FGR (2 to end residues) to IC50 for human full length N-terminal His6-tagged BMX
[16] = target: Dual specificity mitogen-activated protein kinase kinase 7 (Homo sapiens, UniProt O14733); assay: Inhibition of recombinant human N-terminal GST-tagged MKK7beta (2 to end residues) expressed in Escherichia coli preincubated for 5 mins followed by substrate addition after 30 to 60 mins in presence of ATP by fluorescence assay
[17] = target: Protein-tyrosine kinase 6 (Homo sapiens, UniProt Q13882); assay: Inhibition of recombinant human full length N-terminal His6-tagged BRK expressed in baculovirus Sf21 insect cells preincubated for 5 mins followed by substrate addition after 30 to 60 mins in presence of ATP by fluorescence assay
Homo sapiens [18] = species on record: Homo sapiens; assay: Selectivity ratio of IC50 for recombinant human full length N-terminal His6-tagged LCK to IC50 for human full length N-terminal His6-tagged BMX
[19] = Aqueous solubility of the compound at 1 mg; assay type: physicochemical
[20] = target: Tyrosine-protein kinase Fgr (Homo sapiens, UniProt P09769); assay: Inhibition of recombinant human N-terminal His6-tagged FGR (2 to end residues) expressed in baculovirus Sf21 insect cells preincubated for 5 mins followed by substrate addition after 30 to 60 mins in presence of ATP by fluorescence assay
[21] = target: Tyrosine-protein kinase Fyn (Homo sapiens, UniProt P06241); assay: Inhibition of recombinant human full length N-terminal His6-tagged FYN expressed in baculovirus Sf21 insect cells preincubated for 5 mins followed by biotinyl-beta Abeta Abeta AYQAEENTYDEYEN substrate addition after 30 to 60 mins in presence of ATP by fluorescence assay
Homo sapiens [22] = species on record: Homo sapiens; assay: Selectivity ratio of IC50 for recombinant human N-terminal His6-tagged HCK (230 to 497 residues) to IC50 for human full length N-terminal His6-tagged BMX
Homo sapiens [23] = species on record: Homo sapiens; assay: Selectivity ratio of IC50 for recombinant human N-terminal GST-tagged FLT3 (564 to end residues) to IC50 for human full length N-terminal His6-tagged BMX
Homo sapiens [24] = species on record: Homo sapiens; assay: Selectivity ratio of IC50 for recombinant human full length N-terminal His6-tagged YES to IC50 for human full length N-terminal His6-tagged BMX
Homo sapiens [25] = species on record: Homo sapiens; assay: Selectivity ratio of IC50 for recombinant human N-terminal GST-tagged MKK7beta (2 to end residues) to IC50 for human full length N-terminal His6-tagged BMX
Mus musculus [26] = assay: Toxicity in nude mouse xenografted with human NCI-H1975 cells assessed as body weight loss at 25 mg/kg administered qd via oral gavage measured every 2 days up to 18 days; assay type: organism-based; conditions: in vivo
Homo sapiens [27] = species on record: Homo sapiens; assay: Selectivity ratio of IC50 for recombinant human N-terminal His6-tagged PLK1 to IC50 for human full length N-terminal His6-tagged BMX
Mus musculus [28] = assay: Toxicity in nude mouse xenografted with human NCI-H1975 cells assessed as body weight loss at 25 mg/kg administered qd via oral gavage for 18 days measured on day 14; assay type: organism-based; conditions: in vivo, 432 h

Platelet-derived growth factor receptor alpha, sequence (P16234 whole entry): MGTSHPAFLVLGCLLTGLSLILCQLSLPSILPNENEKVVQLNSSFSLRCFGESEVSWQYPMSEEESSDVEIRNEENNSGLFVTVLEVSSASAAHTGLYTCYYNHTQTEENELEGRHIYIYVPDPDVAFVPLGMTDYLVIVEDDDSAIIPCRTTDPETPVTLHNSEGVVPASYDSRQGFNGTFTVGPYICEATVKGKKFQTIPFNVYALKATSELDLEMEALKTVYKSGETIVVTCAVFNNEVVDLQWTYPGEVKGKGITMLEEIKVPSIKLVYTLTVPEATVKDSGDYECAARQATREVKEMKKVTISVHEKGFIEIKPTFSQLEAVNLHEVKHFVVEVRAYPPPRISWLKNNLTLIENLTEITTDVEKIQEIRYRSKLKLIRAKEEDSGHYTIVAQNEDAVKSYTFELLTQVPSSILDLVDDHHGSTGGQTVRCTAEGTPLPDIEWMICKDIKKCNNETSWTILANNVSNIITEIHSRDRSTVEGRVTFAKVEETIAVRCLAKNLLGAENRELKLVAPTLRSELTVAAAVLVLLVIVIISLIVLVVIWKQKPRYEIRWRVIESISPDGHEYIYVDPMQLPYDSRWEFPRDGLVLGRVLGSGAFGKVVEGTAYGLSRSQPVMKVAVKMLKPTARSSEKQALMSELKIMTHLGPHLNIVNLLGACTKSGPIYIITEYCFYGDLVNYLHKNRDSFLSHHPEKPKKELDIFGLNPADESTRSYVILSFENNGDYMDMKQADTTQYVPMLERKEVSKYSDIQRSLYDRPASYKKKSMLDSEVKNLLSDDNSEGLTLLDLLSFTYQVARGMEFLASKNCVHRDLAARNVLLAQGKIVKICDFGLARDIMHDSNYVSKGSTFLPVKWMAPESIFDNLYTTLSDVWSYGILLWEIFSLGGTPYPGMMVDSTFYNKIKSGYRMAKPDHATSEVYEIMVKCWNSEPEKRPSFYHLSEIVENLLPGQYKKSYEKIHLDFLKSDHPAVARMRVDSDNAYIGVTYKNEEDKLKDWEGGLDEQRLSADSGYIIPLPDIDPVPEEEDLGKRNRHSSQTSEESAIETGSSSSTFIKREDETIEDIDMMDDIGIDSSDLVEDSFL
Dual specificity mitogen-activated protein kinase kinase 7, sequence (O14733 whole entry): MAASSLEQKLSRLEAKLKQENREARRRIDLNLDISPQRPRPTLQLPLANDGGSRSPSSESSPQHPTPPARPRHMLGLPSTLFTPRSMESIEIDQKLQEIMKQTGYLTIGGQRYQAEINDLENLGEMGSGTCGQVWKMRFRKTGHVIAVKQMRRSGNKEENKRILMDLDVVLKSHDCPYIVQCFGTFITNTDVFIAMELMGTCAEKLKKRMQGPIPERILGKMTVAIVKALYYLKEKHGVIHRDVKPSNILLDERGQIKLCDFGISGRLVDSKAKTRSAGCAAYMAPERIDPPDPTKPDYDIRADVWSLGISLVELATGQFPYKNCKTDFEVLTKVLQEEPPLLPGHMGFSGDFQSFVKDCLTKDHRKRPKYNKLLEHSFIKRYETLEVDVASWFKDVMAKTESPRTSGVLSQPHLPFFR
Tyrosine-protein kinase ABL1, sequence (P00519 whole entry): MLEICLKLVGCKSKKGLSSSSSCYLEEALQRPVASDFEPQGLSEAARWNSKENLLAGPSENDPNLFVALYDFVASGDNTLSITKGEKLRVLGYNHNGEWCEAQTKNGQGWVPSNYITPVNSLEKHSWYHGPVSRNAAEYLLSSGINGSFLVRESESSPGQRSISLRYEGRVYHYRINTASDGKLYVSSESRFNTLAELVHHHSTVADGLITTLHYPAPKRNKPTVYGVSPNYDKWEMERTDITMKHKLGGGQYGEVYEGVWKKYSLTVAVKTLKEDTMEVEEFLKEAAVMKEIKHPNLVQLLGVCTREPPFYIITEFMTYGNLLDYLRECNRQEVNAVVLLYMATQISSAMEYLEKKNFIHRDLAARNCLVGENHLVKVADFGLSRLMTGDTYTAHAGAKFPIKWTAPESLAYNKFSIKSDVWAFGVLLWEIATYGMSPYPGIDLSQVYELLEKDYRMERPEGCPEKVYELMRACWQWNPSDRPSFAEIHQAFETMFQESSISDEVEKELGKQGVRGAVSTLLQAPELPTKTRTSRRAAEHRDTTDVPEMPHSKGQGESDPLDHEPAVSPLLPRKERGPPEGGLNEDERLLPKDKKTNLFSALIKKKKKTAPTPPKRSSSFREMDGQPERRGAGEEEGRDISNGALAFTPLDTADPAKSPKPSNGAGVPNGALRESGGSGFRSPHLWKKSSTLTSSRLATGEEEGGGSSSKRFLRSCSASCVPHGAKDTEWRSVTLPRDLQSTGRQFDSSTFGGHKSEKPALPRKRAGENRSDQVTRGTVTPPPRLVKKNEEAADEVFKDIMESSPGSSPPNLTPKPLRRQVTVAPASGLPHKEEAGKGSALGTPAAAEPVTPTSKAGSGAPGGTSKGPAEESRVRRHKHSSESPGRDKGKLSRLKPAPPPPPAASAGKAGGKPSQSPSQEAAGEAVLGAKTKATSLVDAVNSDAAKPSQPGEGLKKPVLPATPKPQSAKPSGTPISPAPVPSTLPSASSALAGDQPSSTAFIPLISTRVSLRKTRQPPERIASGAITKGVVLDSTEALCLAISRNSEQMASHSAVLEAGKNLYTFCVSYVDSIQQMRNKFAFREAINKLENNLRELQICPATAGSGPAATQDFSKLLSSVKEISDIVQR
Proto-oncogene tyrosine-protein kinase Src, sequence (P12931 2-536 limits assumed): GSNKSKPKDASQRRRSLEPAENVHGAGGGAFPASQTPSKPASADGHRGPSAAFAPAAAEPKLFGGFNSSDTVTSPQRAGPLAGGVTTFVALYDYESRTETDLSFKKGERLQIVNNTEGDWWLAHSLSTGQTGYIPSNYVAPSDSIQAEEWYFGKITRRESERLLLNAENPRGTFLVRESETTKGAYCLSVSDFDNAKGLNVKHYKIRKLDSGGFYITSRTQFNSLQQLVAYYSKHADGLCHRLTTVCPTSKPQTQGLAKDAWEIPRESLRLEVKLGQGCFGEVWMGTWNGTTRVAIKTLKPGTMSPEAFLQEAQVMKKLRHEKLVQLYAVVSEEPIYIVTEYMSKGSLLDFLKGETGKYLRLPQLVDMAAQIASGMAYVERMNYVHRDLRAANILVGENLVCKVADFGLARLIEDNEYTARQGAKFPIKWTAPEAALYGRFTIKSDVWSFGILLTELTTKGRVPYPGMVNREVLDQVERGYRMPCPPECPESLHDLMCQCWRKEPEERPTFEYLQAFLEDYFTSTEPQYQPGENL
Tyrosine-protein kinase FRK, sequence (P42685 whole entry): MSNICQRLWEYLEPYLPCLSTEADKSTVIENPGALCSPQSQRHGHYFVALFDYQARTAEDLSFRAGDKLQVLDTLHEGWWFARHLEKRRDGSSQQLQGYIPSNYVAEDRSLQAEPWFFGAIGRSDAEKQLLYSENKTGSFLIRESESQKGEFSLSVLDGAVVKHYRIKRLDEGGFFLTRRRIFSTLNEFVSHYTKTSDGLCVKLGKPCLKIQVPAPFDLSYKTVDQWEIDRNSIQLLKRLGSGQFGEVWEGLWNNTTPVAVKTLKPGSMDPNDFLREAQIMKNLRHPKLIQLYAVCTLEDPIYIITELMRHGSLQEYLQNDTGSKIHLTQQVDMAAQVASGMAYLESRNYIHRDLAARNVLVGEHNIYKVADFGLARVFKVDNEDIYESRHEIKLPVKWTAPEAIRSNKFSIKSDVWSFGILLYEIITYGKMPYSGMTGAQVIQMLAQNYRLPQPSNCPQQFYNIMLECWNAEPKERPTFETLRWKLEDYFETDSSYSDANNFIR
Tyrosine-protein kinase HCK, sequence (P08631 whole entry, the tested form may be a part): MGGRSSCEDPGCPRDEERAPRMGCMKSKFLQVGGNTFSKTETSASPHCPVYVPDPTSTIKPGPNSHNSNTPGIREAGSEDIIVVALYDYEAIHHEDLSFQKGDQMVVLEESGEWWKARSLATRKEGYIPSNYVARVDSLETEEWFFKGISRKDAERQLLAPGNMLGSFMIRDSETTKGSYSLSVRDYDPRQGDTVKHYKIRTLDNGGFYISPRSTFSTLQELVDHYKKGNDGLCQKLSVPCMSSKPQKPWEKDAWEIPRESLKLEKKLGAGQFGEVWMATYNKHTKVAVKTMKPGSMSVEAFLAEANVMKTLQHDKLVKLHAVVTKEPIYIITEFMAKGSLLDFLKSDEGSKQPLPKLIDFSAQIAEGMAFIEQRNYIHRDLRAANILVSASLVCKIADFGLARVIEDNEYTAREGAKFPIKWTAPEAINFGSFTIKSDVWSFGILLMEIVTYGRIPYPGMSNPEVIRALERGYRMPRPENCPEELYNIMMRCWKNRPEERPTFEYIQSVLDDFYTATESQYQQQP
Receptor-interacting serine/threonine-protein kinase 2, sequence (O43353 whole entry, the tested form may be a part): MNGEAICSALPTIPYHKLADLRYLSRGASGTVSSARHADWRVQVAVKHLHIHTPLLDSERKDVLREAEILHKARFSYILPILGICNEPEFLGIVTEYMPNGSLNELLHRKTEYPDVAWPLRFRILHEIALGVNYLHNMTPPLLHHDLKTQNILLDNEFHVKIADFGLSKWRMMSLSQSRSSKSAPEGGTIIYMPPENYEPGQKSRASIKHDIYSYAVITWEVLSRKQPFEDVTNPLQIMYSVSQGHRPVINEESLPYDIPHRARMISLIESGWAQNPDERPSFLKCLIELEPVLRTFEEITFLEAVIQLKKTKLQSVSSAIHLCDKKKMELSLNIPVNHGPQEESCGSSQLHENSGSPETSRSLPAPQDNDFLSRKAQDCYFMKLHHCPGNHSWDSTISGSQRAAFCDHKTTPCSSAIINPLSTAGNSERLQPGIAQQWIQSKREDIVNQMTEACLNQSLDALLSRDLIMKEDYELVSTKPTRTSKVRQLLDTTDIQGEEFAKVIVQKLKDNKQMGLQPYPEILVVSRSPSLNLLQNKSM

Structure (SMILES): C=CS(=O)(=O)N1CCC[C@@H]1Cn1cc(-c2ccc3c(c2)OCO3)c2c(N)ncnc21
- Ratio IC50 (Homo sapiens [1]): 18
- IC50 [2]: 197 nM
- IC50 [3]: 403 nM
- Ratio IC50 (Homo sapiens [4]): 114
- inhibition in vivo at 25 mg/kg (NCI-H1975): 73.9%
- Ratio IC50 (Homo sapiens [5]): 2.5
- Ratio IC50 (Homo sapiens [6]): 12
- Ratio IC50 (Homo sapiens [7]): 25.7
- IC50 [8]: 802 nM
- Ratio IC50 (Homo sapiens [9]): 8.3
- IC50 [10]: 199 nM
- IC50 (A549): 4150 nM
- IC50 [11]: 510 nM
- IC50 [12]: 4700 nM
- Activity (Mus musculus [13]): Non-Toxic
- IC50 [14]: > 10000 nM
- Ratio IC50 (Homo sapiens [15]): 3.7
- IC50 [16]: 189 nM
- IC50 [17]: 220 nM
- Ratio IC50 (Homo sapiens [18]): 5.5
- solubility [19]: 100 µg/mL (≈ 234 µM)
- IC50 [20]: 133 nM
- IC50 [21]: 430 nM
- Ratio IC50 (Homo sapiens [22]): 5.6
- Ratio IC50 (Homo sapiens [23]): 91.7
- Ratio IC50 (Homo sapiens [24]): 1.6
- Ratio IC50 (Homo sapiens [25]): 5.3
- Activity (Mus musculus [26]): Toxic
- Ratio IC50 (Homo sapiens [27]): > 280
- Activity (Mus musculus [28]): Non-Toxic
